ChEMBL document CHEMBL1153068, “Discriminatory synergistic effect of Trp-substitutions in superagonist [(Arg/Lys)(14), (Arg/Lys)(15)]nociceptin on ORL1 receptor binding and activation” (Bioorg Med Chem, 2009)
One block for each compound: values may come before it.

Tests used:
Nociceptin receptor [1] = target: T1, Nociceptin receptor (Rattus norvegicus, UniProt P35370); experiment: Agonist activity at rat ORL1 receptor expressed in african green monkey COS7 cells assessed as stimulation of [35S]GTPgammaS binding by radioligand receptor-binding assay; format: functional, cell-based, COS-7
[2] = target: Nociceptin receptor (Rattus norvegicus) (UniProt P35370); experiment: Relative potency, ratio of wild type nociceptin IC50 to compound IC50 for rat ORL1 receptor expressed in african green monkey COS7 cells; format: cell-based; settings: COS-7
[3] = target: Nociceptin receptor (Rattus norvegicus) (UniProt P35370); experiment: Relative potency, ratio of wild type nociceptin EC50 to compound EC50 for stimulation of [35S]GTPgammaS binding to rat ORL1 receptor expressed in african green monkey COS7 cells; format: functional, cell-based; settings: COS-7
Nociceptin receptor [4] = target: T1, Nociceptin receptor; experiment: Displacement of [3H]nociceptin from rat ORL1 receptor expressed in african green monkey COS7 cells by competitive binding assay; format: cell-based, COS-7

Sequence of Nociceptin receptor (Rattus norvegicus) (P35370 whole entry): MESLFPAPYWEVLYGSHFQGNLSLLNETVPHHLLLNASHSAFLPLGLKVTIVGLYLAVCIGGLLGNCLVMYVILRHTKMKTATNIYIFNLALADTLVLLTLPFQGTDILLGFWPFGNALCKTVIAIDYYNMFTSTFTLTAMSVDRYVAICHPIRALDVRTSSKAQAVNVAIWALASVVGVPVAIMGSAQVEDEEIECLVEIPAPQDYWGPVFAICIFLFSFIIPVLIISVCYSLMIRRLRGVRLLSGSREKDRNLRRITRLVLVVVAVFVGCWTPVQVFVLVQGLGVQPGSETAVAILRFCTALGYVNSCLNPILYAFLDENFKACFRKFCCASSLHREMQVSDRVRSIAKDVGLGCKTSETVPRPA
T1 sequence (P35370 whole entry): as above

Compound: H-FGGFTGARKSARKKWNQ-OH
EC50 (Nociceptin receptor [1]): 3.2 nM
Ratio IC50 [2]: 2.35
Ratio EC50 [3]: 4.06
IC50 (Nociceptin receptor [4]): 0.31 nM

Compound: H-FGGFTGARKSARKWKNQ-OH [listing 1 of 2 here]
Ratio IC50 [2]: 2.92
Ratio EC50 [3]: 10

Compound: H-FGGFTGARKSARKLWNQ-OH
Ratio IC50 [2]: 0.35
Ratio EC50 [3]: 0.26

Compound: H-FGGFTGARKSARKRWNQ-OH
EC50 (Nociceptin receptor [1]): 3.1 nM
Ratio IC50 [2]: 2.43
Ratio EC50 [3]: 4.19
IC50 (Nociceptin receptor [4]): 0.3 nM

Compound: C[C@H](NC(=O)CNC(=O)[C@@H](NC(=O)[C@H](Cc1ccccc1)NC(=O)CNC(=O)CNC(=O)[C@@H](N)Cc1ccccc1)[C@@H](C)O)C(=O)N[C@@H](CCCNC(=N)N)C(=O)N[C@@H](CCCCN)C(=O)N[C@@H](CO)C(=O)N[C@@H](C)C(=O)N[C@@H](CCCNC(=N)N)C(=O)N[C@@H](CCCCN)C(=O)N[C@@H](CCCNC(=N)N)C(=O)N[C@@H](CCCCN)C(=O)N[C@@H](CC(N)=O)C(=O)N[C@@H](CCC(N)=O)C(=O)O
Ratio IC50 [2]: 3.48
Ratio EC50 [3]: 11.8

Ratio IC50 [2]: 1.78
Ratio EC50 [3]: 2.24
Compound: H-FGGFTGARKSARKWANQ-OH

Compound: H-FGGFTGARKSARKWRNQ-OH
EC50 (Nociceptin receptor [1]): 1.3 nM
Ratio IC50 [2]: 3.17
Ratio EC50 [3]: 10
IC50 (Nociceptin receptor [4]): 0.23 nM

Compound: H-FGGFTGARKSARKWKNQ-OH [listing 2 of 2 here]
EC50 (Nociceptin receptor [1]): 1.3 nM
IC50 (Nociceptin receptor [4]): 0.25 nM
